Laboratory results published in patent US20100311756A1, “METHODS FOR DELAYING THE PROGRESSION OF AT LEAST ONE OF CARDIAC HYPERTROPHY, CARDIAC REMODELING OR LEFT VENTRICULAR FUNCTION OR THE ONSET OF HEART FAILURE IN SUBJECTS IN NEED OF TREATMENT THEREOF” (TAKEDA PHARMACEUTICALS NORTH AMERICA, INC., priority 2009, published 2010).

Assay: Serum uric acid level in rabbits (unpublished observations, 1998)
Assay type: in vivo
Details: oral dose of 10 mg/kg
Excerpt: The procedures used in this study were reviewed and approved by the Institutional Animal Care and Use Committee (IACUC) of QTest Labs for compliance with regulations and current accepted practices. All applicable sections of the Final Rules of the Animal Welfare Act regulations (Section 9 CFR) and the Public Health Service Policy on Humane Care and Use of Laboratory Animals (OPRR, NIH, 1986) were followed. At the end of the study, all animals were humanely euthanized in accordance with accepted guidelines of the American Veterinary Medical Association (See, American Veterinary Medicine Association (AVMA), 2000 Report of the AVMA Panel on Euthanasia, The Journal of the American Veterinary Medical Association, 218(5):669-696 (2001)). • Drugs Febuxostat and allopurinol (Sigma-Aldrich, St. Louis, Mo., USA) were each formulated as a suspension in 0.5% methylcellulose (Sigma-Aldrich, St. Louis, Mo.) as the vehicle. The febuxostat oral dose of 10 mg/kg was estimated to provide a similar plasma level of febuxostat as the clinically efficacious dose (See, Khosravan et al., Clinical Pharmacokinetics, 45(8):821-841 (2006)). […] Allopurinol was given orally at 60 mg/kg. […] The rabbits were anesthetized with an intramuscular injection of ketamine (35 mg/kg)/xylazine (5 mg/kg) and pre-surgery enrofloxacin (12 mg/kg). […]

For `Cc1nc(-c2ccc(OCC(C)C)c(C#N)c2)sc1C(=O)O` [febuxostat, 2-[3-cyano-4-(2-methylpropoxy)phenyl]-4-methylthiazole-5-carboxylic acid], the “Serum uric acid level” value was “significant reduction”.
